Measurements: the supplement of paper PMC11451515

System: SEM cells
Experiment: cell viability relative to DMSO control; higher = less cytotoxic
Settings: 48 h
In short: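 Viability is expressed as a percentage of DMSO wells within each plate, and cell-free wells serve as background. Seeding densities in the 1536-well plates (5 μl) were 500 cells/well for NOMO1 or SEM leukemia cells and 1000 cells/well for P12-Ichikawa. Each line was adapted for at least four passages in each medium. Library compounds in DMSO were pin-dosed at 47 μM to 0.79 nM (11 points, threefold), and CellTiter-Glo One luminescence was read after 48 h at 37°C.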

[1] = HPLM + 10% dialyzed FBS, 0.000781 µM
[2] = HPLM + 10% dialyzed FBS, 0.00234 µM
[3] = HPLM + 10% dialyzed FBS, 0.00702 µM
[4] = HPLM + 10% dialyzed FBS, 0.0211 µM
[5] = HPLM + 10% dialyzed FBS, 0.0632 µM
[6] = HPLM + 10% dialyzed FBS, 0.19 µM
[7] = HPLM + 10% dialyzed FBS, 0.569 µM
[8] = HPLM + 10% dialyzed FBS, 1.71 µM
[9] = HPLM + 10% dialyzed FBS, 5.12 µM
[10] = HPLM + 10% dialyzed FBS, 15.4 µM
[11] = HPLM + 10% dialyzed FBS, 46.1 µM
[12] = RPMI 5 mM glucose + 10% FBS, 0.000781 µM
[13] = RPMI 5 mM glucose + 10% FBS, 0.00234 µM
[14] = RPMI 5 mM glucose + 10% FBS, 0.00702 µM
[15] = RPMI 5 mM glucose + 10% FBS, 0.0211 µM
[16] = RPMI 5 mM glucose + 10% FBS, 0.0632 µM
[17] = RPMI 5 mM glucose + 10% FBS, 0.19 µM
[18] = RPMI 5 mM glucose + 10% FBS, 0.569 µM
[19] = RPMI 5 mM glucose + 10% FBS, 1.71 µM
[20] = RPMI 5 mM glucose + 10% FBS, 5.12 µM
[21] = RPMI 5 mM glucose + 10% FBS, 15.4 µM
[22] = RPMI 5 mM glucose + 10% FBS, 46.1 µM
[23] = RPMI 5 mM glucose + 10% dialyzed FBS, 0.000781 µM
[24] = RPMI 5 mM glucose + 10% dialyzed FBS, 0.00234 µM
[25] = RPMI 5 mM glucose + 10% dialyzed FBS, 0.00702 µM
[26] = RPMI 5 mM glucose + 10% dialyzed FBS, 0.0211 µM
[27] = RPMI 5 mM glucose + 10% dialyzed FBS, 0.0632 µM
[28] = RPMI 5 mM glucose + 10% dialyzed FBS, 0.19 µM
[29] = RPMI 5 mM glucose + 10% dialyzed FBS, 0.569 µM
[30] = RPMI 5 mM glucose + 10% dialyzed FBS, 1.71 µM
[31] = RPMI 5 mM glucose + 10% dialyzed FBS, 5.12 µM
[32] = RPMI 5 mM glucose + 10% dialyzed FBS, 15.4 µM
[33] = RPMI 5 mM glucose + 10% dialyzed FBS, 46.1 µM

`CCC1=C2CN3C(=O)\C4=C(/C=C3/C2=NC5=CC=C(O)C=C15)[C@@](O)(CC)C(=O)OC4` showed a cell viability [1] of 96.7%, a cell viability [2] of 95.6% and a cell viability [3] of 91.4%. It also gave a cell viability [4] of 28.1%, a cell viability [5] of 19.3% and a cell viability [6] of 17%. For the same compound, the cell viability [7] was 11.6%, the cell viability [8] was 6.74% and the cell viability [9] was 6.74%. The cell viability [10] was 6.36%, the cell viability [11] was 4.6% and the cell viability [12] was 108%. It also gave a cell viability [13] of 102%, a cell viability [14] of 67.7% and a cell viability [15] of 25.6%. It also gave a cell viability [16] of 15.6%, a cell viability [17] of 16.1% and a cell viability [18] of 12.9%. It also gave a cell viability [19] of 6.76%, a cell viability [20] of 7.58% and a cell viability [21] of 5.69%. The cell viability [22] was 5.1%, the cell viability [23] was 94.5% and the cell viability [24] was 89.1%. It also gave a cell viability [25] of 65%, a cell viability [26] of 28% and a cell viability [27] of 16.6%. For the same compound, the cell viability [28] was 15.2%, the cell viability [29] was 12.8% and the cell viability [30] was 6.01%. For the same compound, the cell viability [31] was 7.69%, the cell viability [32] was 5.69% and the cell viability [33] was 4.62%.
With `CON(C)C(=O)N1\N=C(/S[C@]1(CCCN)C2=CC=CC=C2)C3=CC(=CC=C3F)F` the cell viability [1] was 23.7%, the cell viability [2] was 22.9% and the cell viability [3] was 24.5%. The cell viability [4] was 28.8%, the cell viability [5] was 26.4% and the cell viability [6] was 27.4%. For the same compound, the cell viability [7] was 30.7%, the cell viability [8] was 27% and the cell viability [9] was 29.9%. For the same compound, the cell viability [10] was 31.7%, the cell viability [11] was 24.8% and the cell viability [12] was 20.8%. It also gave a cell viability [13] of 20.4%, a cell viability [14] of 20.1% and a cell viability [15] of 22.6%. It also gave a cell viability [16] of 22.8%, a cell viability [17] of 21.5% and a cell viability [18] of 25.6%. The cell viability [19] was 18.8%, the cell viability [20] was 21.3% and the cell viability [21] was 20.4%. The cell viability [22] was 23.8%, the cell viability [23] was 21.2% and the cell viability [24] was 21.1%. For the same compound, the cell viability [25] was 19.9%, the cell viability [26] was 21% and the cell viability [27] was 21.3%. The cell viability [28] was 23.2%, the cell viability [29] was 23.2% and the cell viability [30] was 24.6%. The cell viability [31] was 23.9%, the cell viability [32] was 20.6% and the cell viability [33] was 21.6%.
For `O=C1N\N=C(\C[C@@H]2CCN(C2)C(=O)C3CC3)N1C4=CC=C(C=C4)C5=CC=C6OC=CC6=C5`, the cell viability [1] was 77.5%, the cell viability [2] was 76.9% and the cell viability [3] was 80.2%. It also gave a cell viability [4] of 85.4%, a cell viability [5] of 70.8% and a cell viability [6] of 61.7%. For the same compound, the cell viability [7] was 78.5%, the cell viability [8] was 71.3% and the cell viability [9] was 77.8%. The cell viability [10] was 37.1%, the cell viability [11] was 45.6% and the cell viability [12] was 109%. It also gave a cell viability [13] of 116%, a cell viability [14] of 120% and a cell viability [15] of 107%. For the same compound, the cell viability [16] was 113%, the cell viability [17] was 76.7% and the cell viability [18] was 110%. For the same compound, the cell viability [19] was 97.1%, the cell viability [20] was 125% and the cell viability [21] was 64.3%. For the same compound, the cell viability [22] was 51.9%, the cell viability [23] was 73.3% and the cell viability [24] was 65%. For the same compound, the cell viability [25] was 79.9%, the cell viability [26] was 84.3% and the cell viability [27] was 81.5%. The cell viability [28] was 56.5%, the cell viability [29] was 80.1% and the cell viability [30] was 82.3%. For the same compound, the cell viability [31] was 96.6%, the cell viability [32] was 46.5% and the cell viability [33] was 31.7%.
For `CCN(CCO)CCCC(C)Nc1ccnc2cc(Cl)ccc12` (stereo unspecified), the cell viability [1] was 102%, the cell viability [2] was 93.8% and the cell viability [3] was 114%. It also gave a cell viability [4] of 76.2%, a cell viability [5] of 105% and a cell viability [6] of 118%. For the same compound, the cell viability [7] was 5.95%, the cell viability [8] was 95% and the cell viability [9] was 106%. The cell viability [10] was 62.6%, the cell viability [11] was 49.9% and the cell viability [12] was 105%. It also gave a cell viability [13] of 102%, a cell viability [14] of 117% and a cell viability [15] of 93%. The cell viability [16] was 102%, the cell viability [17] was 108% and the cell viability [18] was 6.8%. It also gave a cell viability [19] of 78.2%, a cell viability [20] of 104% and a cell viability [21] of 64.8%. The cell viability [22] was 42.5%, the cell viability [23] was 98.4% and the cell viability [24] was 80.5%. It also gave a cell viability [25] of 104%, a cell viability [26] of 82.5% and a cell viability [27] of 107%. The cell viability [28] was 99.6%, the cell viability [29] was 5.67% and the cell viability [30] was 66%. It also gave a cell viability [31] of 100%, a cell viability [32] of 52.1% and a cell viability [33] of 37.2%.
For `NC(=O)c1ncn([C@@H]2O[C@H](CO)[C@@H](O)[C@H]2O)c1N`, the cell viability [12] was 81.8%, the cell viability [13] was 95.1% and the cell viability [14] was 89.9%. For the same compound, the cell viability [15] was 72.7%, the cell viability [16] was 95% and the cell viability [17] was 83.1%. For the same compound, the cell viability [18] was 91.7%, the cell viability [19] was 68% and the cell viability [20] was 66.6%. For the same compound, the cell viability [21] was 69.7%, the cell viability [22] was 18.9% and the cell viability [23] was 120%. It also gave a cell viability [24] of 113%, a cell viability [25] of 116% and a cell viability [26] of 120%. It also gave a cell viability [27] of 136%, a cell viability [28] of 109% and a cell viability [29] of 121%. The cell viability [30] was 115%, the cell viability [31] was 122% and the cell viability [32] was 114%. For the same compound, the cell viability [33] was 31.5%.
`C[C@]12CCC(=O)C(O)=C1CC[C@@H]1[C@@H]2CC[C@]2(C)C(=O)CC[C@@H]12` showed a cell viability [1] of 98.8%, a cell viability [2] of 113% and a cell viability [3] of 110%. The cell viability [4] was 114%, the cell viability [5] was 120% and the cell viability [6] was 117%. It also gave a cell viability [7] of 113%, a cell viability [8] of 121% and a cell viability [9] of 108%. The cell viability [10] was 101%, the cell viability [11] was 104% and the cell viability [12] was 98.2%. It also gave a cell viability [13] of 128%, a cell viability [14] of 123% and a cell viability [15] of 106%. It also gave a cell viability [16] of 122%, a cell viability [17] of 116% and a cell viability [18] of 127%. The cell viability [19] was 111%, the cell viability [20] was 103% and the cell viability [21] was 114%. The cell viability [22] was 112%, the cell viability [23] was 119% and the cell viability [24] was 120%. The cell viability [25] was 120%, the cell viability [26] was 130% and the cell viability [27] was 107%. The cell viability [28] was 112%, the cell viability [29] was 121% and the cell viability [30] was 123%. It also gave a cell viability [31] of 107%, a cell viability [32] of 116% and a cell viability [33] of 111%.
In the case of `C=C1C(=O)O[C@@H]2[C@H]3O[C@]3(C)CC/C=C(\C)CC[C@@H]12`, the cell viability [1] is reported as 96.1%, the cell viability [2] is reported as 99.9% and the cell viability [3] is reported as 122%. It also gave a cell viability [4] of 104%, a cell viability [5] of 116% and a cell viability [6] of 115%. It also gave a cell viability [7] of 98.5%, a cell viability [8] of 40.5% and a cell viability [9] of 4.45%. The cell viability [10] was 3.12%, the cell viability [11] was 4% and the cell viability [12] was 81.4%. For the same compound, the cell viability [13] was 84.9%, the cell viability [14] was 103% and the cell viability [15] was 93.9%. For the same compound, the cell viability [16] was 87.6%, the cell viability [17] was 73% and the cell viability [18] was 69.5%. It also gave a cell viability [19] of 19.9%, a cell viability [20] of 2.98% and a cell viability [21] of 1.9%. It also gave a cell viability [22] of 2.67%, a cell viability [23] of 104% and a cell viability [24] of 97%. The cell viability [25] was 102%, the cell viability [26] was 114% and the cell viability [27] was 106%. It also gave a cell viability [28] of 105%, a cell viability [29] of 95.9% and a cell viability [30] of 42.4%. The cell viability [31] was 3.46%, the cell viability [32] was 1.79% and the cell viability [33] was 3.03%.
Compound `CNC(=O)c1ccccc1Sc1ccc2c(/C=C/c3ccccn3)n[nH]c2c1` has a cell viability [1] of 119%, a cell viability [2] of 109% and a cell viability [3] of 119%. The cell viability [4] was 116%, the cell viability [5] was 120% and the cell viability [6] was 118%. For the same compound, the cell viability [7] was 114%, the cell viability [8] was 115% and the cell viability [9] was 73.4%. For the same compound, the cell viability [10] was 33.5% and the cell viability [11] was 30.5%.
